Assay results from US7601713B2, “Kinase inhibitors and their uses” (Rigel Pharmaceuticals, Inc., priority 2005, dated 2009).

Tests used:
Syk kinase = Syk kinase (Homo sapiens, UniProt P43405); experiment: cell-based Syk assay; details: read-out: IC50, inhibition of Syk kinase
Axl kinase = molecular target: T1, Axl kinase (Homo sapiens, UniProt P30530); experiment: Phospho-Akt in-cell Western assay (Axl antibody cross-linking, Hela cells); format: cell-based; details: phospho-Akt readout, read-out: IC50, inhibition of Axl kinase
T1 construct: endogenous in cells; host or cells: HeLa cells
T1 sequence (P30530 26-894): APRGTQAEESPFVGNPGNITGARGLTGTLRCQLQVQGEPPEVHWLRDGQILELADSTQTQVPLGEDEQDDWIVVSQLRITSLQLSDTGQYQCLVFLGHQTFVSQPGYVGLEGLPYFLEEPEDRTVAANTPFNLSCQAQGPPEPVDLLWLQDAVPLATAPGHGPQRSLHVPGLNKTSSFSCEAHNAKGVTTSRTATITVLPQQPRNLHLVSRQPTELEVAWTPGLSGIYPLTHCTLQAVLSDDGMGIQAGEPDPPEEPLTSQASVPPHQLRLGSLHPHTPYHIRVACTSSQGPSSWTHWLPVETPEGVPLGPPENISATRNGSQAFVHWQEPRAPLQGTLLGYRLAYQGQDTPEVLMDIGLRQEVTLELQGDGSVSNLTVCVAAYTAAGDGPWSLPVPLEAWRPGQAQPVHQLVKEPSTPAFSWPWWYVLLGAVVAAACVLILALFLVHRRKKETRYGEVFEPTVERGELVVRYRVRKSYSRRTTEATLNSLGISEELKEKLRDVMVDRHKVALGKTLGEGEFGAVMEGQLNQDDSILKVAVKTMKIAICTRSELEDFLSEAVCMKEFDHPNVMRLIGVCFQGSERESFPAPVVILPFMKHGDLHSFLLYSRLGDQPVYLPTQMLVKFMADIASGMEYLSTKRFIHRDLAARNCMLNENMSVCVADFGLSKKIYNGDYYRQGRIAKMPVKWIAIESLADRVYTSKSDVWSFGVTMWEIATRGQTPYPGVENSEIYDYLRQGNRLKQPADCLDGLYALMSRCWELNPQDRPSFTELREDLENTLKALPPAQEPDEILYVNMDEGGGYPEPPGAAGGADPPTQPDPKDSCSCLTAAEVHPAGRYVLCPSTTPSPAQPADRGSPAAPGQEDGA
Method: The compounds of the invention were tested in the following assay for their ability to inhibit Axl activity.
Phospho-Akt in-Cell Western Assay
Starvation medium: For Axl stimulation: 0.5% FCS (fetal calf serum) in DMEM, plus Axl/Fc (extracellular domain of AXL fused to immunoglobulin Fc region) (R&D, 154-AL) 500 ng/mL.
Axl antibody cross-linking: • 1st: Mouse anti-Axl (R&D, MAB 154). • 2nd: Biotin-SP-conjugated AffiniPure goat anti-mouse IgG (H+L) (Jackson ImmunoResearch #115-065-003).
Primary antibody: Rabbit anti-human Phospho-Akt antibody (Cell Signaling 9271): 1×250 diluted in blocking buffer.
Secondary antibody: HRP (horse radish peroxidase)-conjugated Goat anti-Rabbit secondary, stock solution: Jackson lmmunoResearch (Goat anti-Rabbit HRP, #111-035-144) 1:1 diluted in glycerol, store at −20° C. The working solution: 1×2000 dilution of stock in blocking buffer.
A 96 well TC (tissue culture treated) plate was coated with 10 μg/mL poly-L-Lysine at 37° C. for 30 min, washed twice with PBS, and air-dried for 5 minutes before cells were added. Hela cells were seeded at 10,000 cells/well and the cells were starved in 100 μL starvation medium containing Axl/Fc for 24 hrs.
The cells were pre-treated with test compounds by adding 100 μL of 2× test compound to the starvation medium on the cells. The cells were incubated at 37° C. for 1 hr before stimulation.
The cells were stimulated by Axl-antibody cross-linking as follows: A 5× 1st/2nd Axl antibody mixture was made (37.5 μg/mL 1st/100 μg/mL 2nd) in starvation medium and nutated at 4° C. with thorough mixing for 1-2 hours for clustering. The resulting mix was warmed to 37° C. 50 μL of 5× Axl 1st/2nd of antibody cluster was added to the cells and the cells were incubated at 37° C. for 5 min.
After 5 minutes stimulation, the plate was flicked to remove medium and the plate was tapped onto paper towels. Formaldehyde (4.0% in PBS, 100 μL) was added to fix the cells and the cells were incubated at ambient temperature for 20 min without shaking.
The cells were washed with a plate washer buffer to remove the formaldehyde solution. The plate was flicked to remove excess wash buffer and tapped onto paper towels. Quenching buffer (100 μL) was added to each well and the cells were incubated at ambient temperature for 20 minutes without shaking.
The cells were washed with a plate washer buffer to remove the quenching buffer. Blocking buffer (100 μL) was added and the cells were incubated at ambient temperature for at least an hour with gentle shaking.
The cells were washed with a plate washer buffer and diluted primary antibody (50 μL) was added to each well (blocking buffer was added to the negative control wells instead). The plates were incubated overnight at 4° C. with gentle shaking.
The wash buffer was removed, diluted secondary antibody (100 μL) was added, and the cells were incubated at ambient temperature for 1 hour with gentle shaking. During the incubation, the chemiluminescent reagent was brought to ambient temperature.
The secondary antibody was removed by washing the cells 1× with wash buffer, 1× with PBS by plate washer. The PBS was removed from the plate and the chemiluminescent reagent (80 μL: 40 μL A and 40 μL B) was added to each well at ambient temperature.
The resulting chemiluminescence was read with a Luminomitor within 10 minutes to minimize changes in signal intensity. After reading the chemiluminescence, the cells were washed 1× with wash buffer and 1× with PBS by plate washer. The plate was tapped onto paper towels to remove excess liquid from wells and air-dried at ambient temperature for 5 minutes.
Crystal Violet working solution (60 μL) was added to each well and the cells were incubated at ambient temperature for 30 min. The crystal violet solution was removed, and the wells were rinsed with PBS, then washed 3× with PBS (200 μL) for 5 minutes each.
5% SDS solution (70 μL) was added to each well and the cells were incubated on a shaker for 30 min at ambient temperature. […]

[1] = system: JAK kinases (JAK1 and JAK3); experiment: JAK inhibition: IL-4-stimulated CD23 upregulation in human Ramos B-cells, FACS; format: cell-based; details: IL-4 stimulated Ramos B-cells, read-out: IC50, inhibition of JAK kinases in cellular assay
Method: JAK inhibition was tested in human Ramos B-cells activated with IL-4. Twenty to 24 hours post stimulation, the cells are stained for upregulation of CD23 and analyzed by FACS. Stimulation of the B-cells with IL-4 leads to the activation of the JAK/STAT pathway through phosphorylation of the JAK kinase JAK1 and JAK3, which in turn phosphorylate and activate transcription of factor […].
For the assay, human Ramos B-cells (ATCC, Catalog No. CRL-1596) are cultured in RPMI 1640 medium (Cellgro, Catalog No. 10-040-CM) containing 10% fetal bovine serum (JRH, Catalog No. 12106-500M) according to the propagation protocol supplied with the cells, and maintained at a density of approximately 3.5×10^5 cells/ml. The day before the assay, the cells are diluted to 3.5×10^5 cells/ml to insure they are in the logarithmic growth phase. The cells are spun down, and suspended in RPMI 1640 medium containing 5% fetal bovine serum to a density of 3.5×10^4 cells/ml and aliquots dispensed into a 96-well tissue culture plate. Cells are incubated with test compound (dissolved in DMSO) or DMSO (control) for 1 hr at 37° C. and then stimulated with IL-4 (Pepotech, Catalog No. 200-04) for 20-24 hours (final concentration is 50 Units/ml). Cells are then spun down, stained with anti-CD23-PE antibody (BD Pharmigen, Catalog No. 555711) and analyzed by FACS.

| SMILES | IC50 (Syk kinase) | IC50 (Axl kinase) | IC50 [1] |
| --- | --- | --- | --- |
| CONC(=O)Cc1cccc(Nc2nc(NC3C4C=CC(C4)C3C(N)=O)c3nc[nH]c3n2)c1 (racemic) [Compound 230, Racemic-(2-exo,3-exo-)-N6-(3-aminocarbonylbicyclo [2.2.1]hept-5-en-2-yl)-N2-[3-(N-methoxy)-aminocarbonyl-methylphenyl]-1H-purine-2,6-diamine] | < 5 µM | > 10 µM |  |
| Cc1csc2c(NC3C4C=CC(C4)C3C(N)=O)nc(Nc3ccc(OCCN4CCCC4)cc3)nc12 (racemic) [Compound 240, Racemic-(2-exo,3-exo-)-7-methyl-N4-(3-aminocarbonylbicyclo [2.2.1]hept-5-en-2-yl)-N2-[4-[2-(1-pyrrolidinyl)ethoxy]phenyl]-thieno[3,2-d]pyrimidine-2,4-diamine] |  | < 10 µM | < 5 µM |
| CONC(=O)Cc1ccc(Nc2nc(NC3C4C=CC(C4)C3C(N)=O)c3cc[nH]c3n2)cc1 (racemic) [Compound 227, Racemic-(2-exo,3-exo)-N4-(3-aminocarbonylbicyclo [2.2.1]hept-5-en-2-yl)-N2-[4-(N-methoxy)-aminocarbonyl-methylphenyl]-1H-pyrrolo[2,3-d]pyrimidine-2,4-diamine] | < 10 µM | > 10 µM |  |
| Cc1csc2c(NC3C4C=CC(C4)C3C(N)=O)nc(Nc3ccc(S(N)(=O)=O)cc3)nc12 (racemic) [Compound 242, Racemic-(2-exo,3-exo-)-7-methyl-N4-(3-aminocarbonylbicyclo [2.2.1]hept-5-en-2-yl)-N2-(4-aminosulfonyl)phenyl-thieno[3,2-d]pyrimidine-2,4-diamine] |  | > 10 µM | < 5 µM |
| Cc1csc2c(NC3C4C=CC(C4)C3C(N)=O)nc(Nc3ccc(OCCN4CCCC4)c(F)c3)nc12 (racemic) [Compound 241, Racemic-(2-exo,3-exo-)-7-methyl-N4-(3-aminocarbonylbicyclo [2.2.1]hept-5-en-2-yl)-N2-[3-fluoro-4-[2-(1-pyrrolidinyl)ethoxy]phenyl]-thieno[3,2-d]pyrimidine-2,4-diamine] |  | < 5 µM | < 5 µM |
| NC(=O)C1C2C=CC(C2)C1Nc1nc(Nc2cccc(OCc3cccnc3)c2)nc2[nH]cnc12 (racemic) [Compound 226, Racemic-(2-exo,3-exo-)-N6-(3-aminocarbonylbicyclo [2.2.1]hept-5-en-2-yl)-N2-[3-(3-pyridinylmethoxy)phenyl]-1H-purine-2,6-diamine] |  | < 5 µM | > 10 µM |
| NC(=O)C1C2C=CC(C2)C1Nc1nc(Nc2ccc(OCCN3CCCC3)c(F)c2)nc2[nH]cnc12 (racemic) [Compound 236, Racemic-(2-exo,3-exo-)-N6-(3-aminocarbonylbicyclo [2.2.1]hept-5-en-2-yl)-N2-[3-fluoro-4-[2-(1-pyrrolidinyl)ethoxy]phenyl]-1H-purine-2,6-diamine] | < 10 µM |  |  |

Continued, values first:

| IC50 (Syk kinase) | IC50 (Axl kinase) | IC50 [1] | SMILES |
| --- | --- | --- | --- |
| < 5 µM |  |  | NC(=O)C1C2C=CC(C2)C1Nc1nc(Nc2ccc(OCCN3CCCC3)c(Cl)c2)nc2[nH]cnc12 (racemic) [Compound 235, Racemic-(2-exo,3-exo-)-N6-(3-aminocarbonylbicyclo [2.2.1]hept-5-en-2-yl)-N2-[3-chloro-4-[2-(1-pyrrolidinyl)ethoxy]phenyl]-1H-purine-2,6-diamine] |
|  | < 5 µM | > 10 µM | NC(=O)C1C2C=CC(C2)C1Nc1nc(Nc2cccc(OCc3cccnc3)c2)nc2[nH]ccc12 (racemic) [Compound 225, Racemic-(2-exo,3-exo)-N4-(3-aminocarbonylbicyclo [2.2.1]hept-5-en-2-yl)-N2-[3-(3-pyridinylmethoxy)] phenyl-1H-pyrrolo[2,3-d]pyrimidine-2,4-diamine] |
|  | < 10 µM | > 10 µM | NC(=O)C1C2C=CC(C2)C1Nc1nc(Nc2cccc(OCc3ccncc3)c2)nc2[nH]cnc12 (racemic) [Compound 224, Racemic-(2-exo,3-exo-)-N6-(3-aminocarbonylbicyclo [2.2.1]hept-5-en-2-yl)-N2-[3-(4-pyridinylinethoxy)] phenyl-1H-purine-2,6-diamine] |
|  | < 5 µM | < 5 µM | CONC(=O)C1C2C=CC(C2)C1Nc1nc(Nc2cccc(OC)c2)nc2[nH]ccc12 (racemic) [Compound 233, Racemic-(2-exo,3-exo)-N4-(N-methoxy-3-aminocarbonylbicyclo [2.2.1]hept-5-en-2-yl)-N2-(3-methoxyphenyl)-1H-pyrrolo[2,3-d]pyrimidine-2,4-diamine] |
|  | < 10 µM | > 10 µM | NC(=O)C1C2C=CC(C2)C1Nc1nc(Nc2cccc(OCc3ccncc3)c2)nc2[nH]ccc12 (racemic) [Compound 223, Racemic-(2-exo,3-exo)-N4-(3-aminocarbonylbicyclo [2.2.1]hept-5-en-2-yl)-N2-[3-(4-pyridinylmethoxy)] phenyl-1H-pyrrolo[2,3-d]pyrimidine-2,4-diamine] |
| > 10 µM | > 10 µM |  | CONC(=O)Cc1ccc(Nc2nc(NC3C4C=CC(C4)C3C(N)=O)c3nc[nH]c3n2)cc1 (racemic) [Compound 228, Racemic-(2-exo,3-exo-)-N6-(3-aminocarbonylbicyclo [2.2.1]hept-5-en-2-yl)-N2-[4-(N-methoxy)-aminocarbonyl-inethylphenyl]-1H-purine-2,6-diamine] |
